Laboratory results as given in publication PMC9960827, “Cloning and Characterization of Trypanosoma congolense and T. vivax Nucleoside Transporters Reveal the Potential of P1-Type Carriers for the Discovery of Broad-Spectrum Nucleoside-Based Therapeutics against Animal African Trypanosomiasis” (International Journal of Molecular Sciences, 2023).
“And” between values parts separate entries of the source, which are not always exact repeats. Equal entries are not always repeated. Where two headings read alike, the source gives them in different places. Marks after values point to notes of the source that are not given here.

Key:
[1] = molecular target: T. congolense adenosine transporter; assay: [3H]-adenosine uptake and its inhibition in T. congolense IL3000 bloodstream forms; format: cell-based, Trypanosoma congolense; settings: 0.05 µM [3H]-adenosine, 30 s; IC50 converted to Ki; read-out: Ki on the transport of [3H]-adenosine
Experimental: (§1) Uptake assays using radiolabeled trypanocides and/or nucleosides were carried out as described previously. Briefly, parasite cultures were harvested, washed twice in assay buffer (33 mM HEPES, 98 mM NaCl, 4.6 mM KCl, 0.5 mM CaCl2, 0.07 mM MgSO4, 5.8 mM NaH3PO4, 0.03 mM MgCl2, 23 mM NaHCO3, 14 mM D-glucose, pH 7.3), then resuspended and adjusted to a density of 1 × 10^8 cells/mL in assay buffer. The radiolabeled permeant in the presence or absence of different concentrations of potential inhibitors reconstituted in 100 μL assay buffer was deposited on top of 250 μL oil mix in microcentrifuge tubes; 1 × 10^7 parasites in 100 μL assay buffer were added to the tube and incubated for a pre-determined interval. The reaction was stopped by the addition of 1 mL of a high concentration of ice-cold unlabeled substrate in assay buffer (‘stop solution’) and centrifugation, or by immediate centrifugation at […] as appropriate. The microcentrifuge tubes were flash-frozen, and the bottom of each tube containing the cell pellet was cut off and transferred to a scintillation vial. Cell pellets were lysed in 2% SDS, after which scintillation fluid (Scintlogic U, Lablogic) was added, followed by overnight incubation in the dark. Scintillation was measured in a 300SL (Hidex) scintillation counter (Hidex). All the assays were conducted in triplicate and analysis was carried out using Microsoft Excel and GraphPad Prism. All kinetic parameters were obtained on at least 3 separate occasions.
(§2) The dose-dependent uptake assay allowed for the affinity of nucleoside analogs to different nucleoside transporters to be determined by measuring the extent to which the analogs compete with and inhibit the uptake of radiolabel adenosine. This allowed for the determination of biochemical parameters such as Km and Vmax through the application of the Michaelis–Menten equation V0 = Vmax([substrate]/([substrate] + Km)). The 50% Inhibitory Concentration (IC50) of the purines and pyrimidines and their analogs was determined from non-linear regression to sigmoid curves with variable slope (Prism 8), and the IC50 of the inhibitor and the Km of the labeled permeant were then used to calculate the inhibition constant (Ki) of the analogs through the Cheng–Prusoff equation: Ki = IC50/(1 + (L/Km)), where L denotes the radiolabel concentration. The calculated Ki was in turn used to determine the Gibbs free energy (ΔG^0) of the inhibitor–transporter interaction using the equation: ΔG^0 = -RTln(Ki), where R represents the gas constant and T symbolizes the absolute temperature in Kelvin [104].

TcoAT1 [2] = format: cell-based, Trypanosoma congolense
Description: (§3) The information for the T. congolense adenosine transporter (TcoAT1) and four putative T. vivax nucleoside transporters was obtained in the TritrypDB (tritrypdb.org/tritrypdb) genome database. Primers were designed to flank each gene upstream of the 5′ end (forward) and downstream of the 3′ end (reverse) as described (primer sequences in Supplementary Table S2). Following amplification from the genomic DNA of T. congolense or T. vivax, DNA for each extracted gene was ligated into the pNUS-HcN expression vector doubly digested with NdeI using the NEBuilder kit according to the manufacturer’s instructions (New England Biolabs). Construct was transformed into competent E. coli cells, and ligation was confirmed by restriction enzyme digestion of isolated plasmid DNA followed by Sanger sequencing (Source BioScience, Nottingham, UK). Confirmed plasmids were then transfected into L. mexicana cell line in which both NT1 and NT2 were doubly knocked out (SUPKO) and derived from L. mexicana Cas9 [64] as described. Clones grown in medium containing 50 μg/mL neomycin (G418) were collected for further confirmation by PCR with genomic DNA using a forward primer of the transporter gene and a reverse primer of the plasmid.
as §1, §2

TvxNT3 = TvxNT3 (Trypanosoma vivax, UniProt F9WV62); assay: cell-based; format: cell-based; settings: difference in ΔG0 relative to the parent purine (adenosine or inosine)
Description: as §3, §1, §2

L. mexicana Cas9 = assay: Resazurin drug sensitivity assay, LmexCas9; format: cell-based, Leishmania mexicana; settings: Leishmania mexicana, read-out: LmexCas9 EC50
Experimental: (§4) EC50 values were determined by plotting to an equation for a sigmoid curve with variable slope (GraphPad Prism 8). All values were the average of at least three independent determinations on different days.

L. mexicana SUPKO+TcoAT1 = assay: microbe, parasite or virus in culture; format: cell-based, Leishmania mexicana; settings: for EC50: Leishmania mexicana, read-out: SUPKO+TcoAT1 EC50
Experimental: as §4

L. mexicana SUPKO+TvxNT3 = assay: microbe, parasite or virus in culture; format: cell-based, Leishmania mexicana; settings: for EC50: Leishmania mexicana, read-out: SUPKO+TvxNT3 EC50
Experimental: as §4

L. mexicana SUPKO = assay: microbe, parasite or virus in culture; format: cell-based, Leishmania mexicana; settings: for EC50: Leishmania mexicana, read-out: SUPKO EC50, resazurin, promastigotes; for SUPKO RF (Cas9): Resistance Factor = EC50(SUPKO)/EC50(Cas9)
Experimental: as §4

T. congolense IL3000 = assay: Alamar Blue (resazurin) assay, T. congolense IL3000; format: cell-based, Trypanosoma congolense; settings: Trypanosoma congolense, read-out: T. congolense IL3000 EC50
Experimental: as §4

T. congolense 6C3 = assay: microbe, parasite or virus in culture; format: cell-based, Trypanosoma congolense; settings: for EC50: Trypanosoma congolense, diminazene resistant strain, resazurin, read-out: T. congolense 6C3 EC50; for T. congolense 6C3 RF: resistance factor = EC50 (test strain)/EC50(control strain)
Experimental: as §4

[3] = molecular target: T. b. brucei P1 (TbP1/NT2); settings: cited from earlier work
T. vivax = system: T. vivax; design: method as in Mabille et al. [69]; settings: added for comparison only; ref Mabille et al. [69]; cited from earlier work
T. brucei TbAT1-KO = settings: cited from earlier work
T.b.b. B48 = assay: Alamar Blue (resazurin) assay, T. b. brucei B48; format: cell-based, Trypanosoma brucei brucei; settings: Trypanosoma brucei, read-out: T.b.b. B48 EC50
Experimental: as §4

TcoAT1 [4] = assay: Uptake of [3H]-pentamidine and [3H]-diminazene in SUPKO+TcoAT1 versus SUPKO; format: cell-based, Trypanosoma congolense; settings: 25 nM [3H]-pentamidine or 50 nM [3H]-diminazene, SUPKO+TcoAT1 vs SUPKO
Experimental: as §1, with “All the assays were conducted in triplicate and analysis was carried out using Microsoft Excel and GraphPad Prism. All kinetic parameters were obtained on at least 3 separate occasions.” left out

T. evansi = assay: Alamar Blue (resazurin) assay, T. evansi; format: cell-based, Trypanosoma evansi; settings: Trypanosoma evansi; resazurin; read-out: T. evansi EC50
Experimental: as §4

T. equiperdum = assay: Alamar Blue (resazurin) assay, T. equiperdum; format: cell-based, Trypanosoma equiperdum; settings: Trypanosoma equiperdum; resazurin; read-out: T. equiperdum EC50
Experimental: as §4

[5] = Resazurin toxicity assay on human embryonic kidney cells; format: cell-based; settings: human
Experimental: as §4

[6] = system: human embryonic kidney (HEK) cells; assay: as above; format: cell-based
Experimental: as §4

[7] = Resistance Factor relative to SUPKO

Chain of TvxNT3 (F9WV62 entry or part of it): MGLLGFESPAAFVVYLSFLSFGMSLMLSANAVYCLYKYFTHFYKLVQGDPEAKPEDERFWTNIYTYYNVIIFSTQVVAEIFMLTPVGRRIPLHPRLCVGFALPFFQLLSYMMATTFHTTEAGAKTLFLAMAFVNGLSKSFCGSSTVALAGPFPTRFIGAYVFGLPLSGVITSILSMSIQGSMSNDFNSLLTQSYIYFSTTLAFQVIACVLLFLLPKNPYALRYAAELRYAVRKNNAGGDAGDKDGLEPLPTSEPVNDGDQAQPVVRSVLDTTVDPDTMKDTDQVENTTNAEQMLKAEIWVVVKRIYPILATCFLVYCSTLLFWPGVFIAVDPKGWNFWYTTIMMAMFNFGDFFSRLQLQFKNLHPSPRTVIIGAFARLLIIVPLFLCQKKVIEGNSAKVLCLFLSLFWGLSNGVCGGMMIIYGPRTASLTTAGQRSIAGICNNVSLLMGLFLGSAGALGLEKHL

SMILES	EC50 (L. mexicana Cas9)	EC50 (L. mexicana SUPKO+TcoAT1)	EC50 (L. mexicana SUPKO+TvxNT3)	EC50 (L. mexicana SUPKO)	SUPKO RF (Cas9) (L. mexicana SUPKO)	EC50 (T. congolense IL3000; BSF, resazurin)	EC50 (T. congolense 6C3)	T. congolense 6C3 RF (T. congolense 6C3)	EC50 (T. vivax)	EC50 (T.b.b. B48)	other results
Nc1ncnc2c1ncn2[C@@H]1O[C@H](CO)C[C@H]1O [Cordycepin, 3′-deoxyadenosine]	91600 ± 12900 nM	> 100000 nM	> 100000 nM	> 100000 nM	>1.09	2460 ± 420 nM	2160 ± 440 nM	0.88	120 ± 20 nM		Ki [1]: 12000 ± 2000 nM; fold difference in affinity compared to adenosine (TcoAT1 [2]): 10 fold; Ki (TcoAT1 [2]; 0.05 µM [3H]-adenosine, 10 s, IC50 converted to Ki, read-out: Ki on the transport of [3H]-adenosine): 4590 nM and 4600 nM; ΔG0 (TcoAT1 [2]; Gibbs free energy of binding, from Km or Ki): -7.29 kcal/mol; δ(ΔG0) (TcoAT1 [2]; loss of Gibbs free energy of binding relative to the parent nucleoside): 1.42 kcal/mol; δ(ΔG0) (TvxNT3): -1.07 kcal/mol; Ki ([3]; T. b. brucei bloodstream forms, read-out: Tbb P1 Ki): 210000 ± 48000 nM; Tbb P1 ΔG0 [3]: -5.02 kcal/mol; resistance of the TbAT1-KO strain (T. brucei TbAT1-KO): 17 fold
N=C(N)c1ccc(/N=N/Nc2ccc(C(=N)N)cc2)cc1 [Diminazene, reference compound]					1.27		1320 ± 430 nM	5.7 ^a		340 ± 130 nM	EC50 (T. congolense IL3000): 230 ± 40 nM; effect of the expression of TcoAT1 on the uptake of the trypanocide (TcoAT1 [4]): no effect
Nc1ncnc2c1c(F)cn2[C@@H]1O[C@H](CO)[C@@H](O)[C@H]1O [FH3167, 7-deaza-7-fluoroadenosine]	96 ± 9 nM	7500 ± 900 nM	57200 ± 6800 nM	63400 ± 5500 nM	660	450 ± 620 nM	480 ± 100 nM	1.06	38 ± 6 nM	160 ± 30 nM	SUPKO+TcoAT1 RF (SUPKO) (L. mexicana SUPKO+TcoAT1; [7]): 8.48; SUPKO+TvxNT3 RF (SUPKO) (L. mexicana SUPKO+TvxNT3; [7]): 1.1; EC50 (T. evansi): 180 ± 23 nM; EC50 (T. equiperdum): 32 ± 7 nM; EC50 [5]: 490 ± 50 nM; SI T. congolense ([6]; selectivity index = EC50 (HEK cells)/EC50 (T. congolense)): 1.1; SI T. equiperdum ([6]; selectivity index = EC50 (HEK cells)/EC50 (T. equiperdum)): 15; SI T. evansi ([6]; selectivity index = EC50 (HEK cells)/EC50 (T. evansi)): 2.7
